Test results: US5290553A, “Alkaloids of picralima nitida used for treatment of protozoal diseases” (The United States of America as represented by the …, priority 1991, dated 1994)
In brackets after ≈: the same amount, converted by molar mass. Where two headings read alike, the source gives them in different places.

Columns and labels:
[1] = system: Plasmodium falciparum D-6 clone (Sierra Leone); test: In vitro antimalarial assay, D-6 clone (tritiated hypoxanthine uptake); assay type: cell-based; settings: for IC50: Plasmodium falciparum, read-out: IC50, D-6 Clone
Procedure: (§1) The in vitro assays were performed by using a modification of the semi-automated microdilution technique described earlier in Desjardins et al.^29 and Milhous et al.^30 Two P. falciparum malaria parasite clones, designated as Indochina (W-2) and Sierra Leone (D-6), were utilized in susceptibility testing. The W-2 clone is resistant to chloroquine, pyrimethamine, sulfadoxine, and quinine, and the other clone is resistant to mefloquine. The test extracts were dissolved in dimethylsulfoxide (DMSO) and serially diluted with media. The uptake of tritiated hypoxanthine was used as an index of inhibition of parasite growth.
(§2) Two P. falciparum malaria parasite clones, designated as Indochina (W-2) and Sierra Leone (D-6), were utilized in susceptibility testing. The W-2 clone is resistant to chloroquine, pyrimethamine, sulfadoxine, and quinine, and the other clone is resistant to mafloquine.
(§3) The test extracts were dissolved in DMSO and serially diluted with media. The uptake of tritiated hypoxanthine was used an an index of inhibition of parasite growth.

[2] = system: Plasmodium falciparum W-2 clone (Indochina); test: In vitro antimalarial assay, W-2 clone (tritiated hypoxanthine uptake); assay type: cell-based; settings: for IC50: Plasmodium falciparum, read-out: IC50, W-2 Clone
Procedure: as §1, §2, §3

[3] = system: Leishmania (Leishmania) chagasi promastigotes (MHOM/BR/84/BA-13); test: Growth inhibition of leishmania promastigotes over 96 hours; assay type: cell-based
Procedure: A clinical isolate of visceral Leishmania (Leishmania) chagasi, MHOM/BR/84/BA-13, was used for this study. This isolate was selected because sensitivity to SbV was previously determined using RAM. MHOM/BR/84/BA-13 is sensitive to Pentostam (sodium antimony gluconate) at 6 μg/ml Sb (20 μg/ml drug); and to Glucantime (N-methyl-glucamine antimoniate) at 80 μg/ml Sb (286 μg/ml drug)
Promastigotes of L. chagasi were grown in a serum-free, defined medium, MM2^43. The MM2 medium contained 120 μg/ml protein (10 μg/ml human transferrin, 10 μg/ml human insulin, 100 μg/ml defatted bovine albumin), plus 10 μg/ml low density bovine lipoprotein. […] Cultures were maintained at 25° C. during growth and incubation with drug.
Promastigotes were maintained in log phase growth for 3 successive transfers (48-72 hours apart) prior to radiorespirometric testing. Test extracts (or PBSS plus drug solvent [DMSO], for parallel control cultures) was added 24 hours after the third promastigote transfer to fresh growth medium. Incubation in the presence of plant extracts was continued for 96 additional hours while the parasites remained in mid-log phase growth. The rest of the radiorespirometric procedure was conducted as previously described^45.

[4] = system: W-2 and D-6 clones of Plasmodium falciparum; test: In vitro antimalarial assay, statements on both clones; assay type: cell-based; settings: P. falciparum clones
Procedure: as §1
The in vitro assays were performed by using a modification of the semi-automated microdilution technique described earlier (Desjardins et al., 1979; Milhous et al., 1985). Two P. falciparum malaria parasite clones, designated as Indochina (W-2) and Sierra Leone (D-6), were utilized in susceptibility testing. The W-2 clone is resistant to chloroquine, pyrimethamine, sulfadoxine, and quinine, and the other clone is resistant to mafloquine.
as §3

opiate receptor = settings: from cell suspension culture of P. nitida; cited from earlier work
malaria = settings: in vivo; cited from earlier work
avian malaria = settings: in vivo; cited from earlier work
[5] = relative to cocaine; cited from earlier work
[6] = system: Leishmania (Leishmania) chagasi MHOM/BR/84/BA-13; settings: previously determined; cited from earlier work
[7] = system: Trypanosoma brucei brucei; test: In vivo antitrypanosomial activity, rat; settings: 7 mg i.p.
[8] = system: Trypanosoma brucei brucei; test: In vivo antitrypanosomial activity, mouse; settings: 7 mg i.p.
[9] = Table 5, alkaloids and reference drugs

COC(=O)[C@@H]1[C@H]2C[C@H]3c4[nH]c5ccccc5c4CCN3C[C@@H]2CC[C@@H]1O [Yohimbine, reference compound]
IC50 [1]: 7.51 µg/mL (≈ 21.2 µM)
IC50 [2]: 6.16 µg/mL (≈ 17.4 µM)

CC=C1CN2C3CC1C(CO)C2Cc1c3[nH]c2ccccc12 (stereo not shown) [PNF-S7]
IC50 [1, 9]: 7.6 µg/mL (≈ 25.8 µM)
IC50 [2, 9]: 10.6 µg/mL (≈ 36 µM)

COC(=O)C1=CO[C@@H](C)[C@@H]2C[n+]3ccc4c([nH]c5ccccc54)c3C[C@H]12 [Alstonine]
IC50 [1, 9]: 0.02 µg/mL
IC50 [2, 9]: 0.09 µg/mL
inhibition of leishmania promastigotes, ranking ([3]; alkaloids isolated from the active fraction): greatest inhibition
concentration of the highest growth inhibition ([3]; leishmania promastigotes): 50 µg/mL
growth inhibition, dose relation ([3]; leishmania promastigotes): dose related activity

C/C=C1/CN2[C@H]3C[C@H]1[C@@H](CO)[C@@H]2Cc1c3[nH]c2ccc(O)cc12 [Sarpagine, reference compound]
IC50 [1, 9]: 16.6 µg/mL (≈ 53.6 µM)
IC50 [2, 9]: 29.2 µg/mL (≈ 94 µM)

C/C=C1/C[N@+]2(C)CC[C@@]34c5ccccc5N[C@]32[C@@H](O)C[C@@H]1[C@@]4(CO)C(=O)OC [Echitamine, reference compound]
IC50, D-6 Clone [1, 9]: 4.68 µg/mL
antimalarial activity in vitro [4]: no activity
IC50, W-2 Clone [2, 9]: 7.25 µg/mL

CC=C1CN2C3CC45c6ccccc6NC4(O3)C2CC1C5(COC(C)=O)C(=O)OC (stereo not shown) [Picraline]
IC50 [1, 9]: 0.78 µg/mL (≈ 1.9 µM)
IC50 [2, 9]: 0.53 µg/mL (≈ 1.29 µM)

C=C1c2[nH]c3ccccc3c2CCN2CC[C@@H]1/C(=C\C)C2 [pericine]
CNS activity, opiate receptor binding (opiate receptor): CNS active

CC=C1CN2CCC34c5ccccc5N(C)C35OCC4(C(=O)OC)C1CC25 (stereo not shown) [.PSI.-Aukuammigine]
IC50 [1]: 0.83 µg/mL (≈ 2.26 µM)
IC50 [2]: 0.1 µg/mL (≈ 0.273 µM)

C/C=C1/CN2CC[C@@]34c5cc(O)ccc5N(C)[C@]35OC[C@@]4(C(=O)OC)[C@@H]1C[C@H]25 [Akuammine]
IC50 [1, 9]: 0.95 µg/mL (≈ 2.48 µM)
IC50 [2, 9]: 0.66 µg/mL (≈ 1.73 µM)
activity in clinical trials (malaria): inactive
activity against avian malaria (avian malaria): inactive against avian malaria
local anesthetic action [5]: local anesthetic action comparable to that of cocaine

N-methyl-glucamine antimoniate [Glucantime]
concentration at which isolate is sensitive, as Sb [6]: 80 μg/ml Sb
concentration at which isolate is sensitive, as drug [6]: 286 μg/ml drug

C/C=C1/CN2CC[C@]34C(=C(C(=O)OC)[C@H]1C[C@H]23)Nc1ccccc14 [Akuammicine]
IC50 [1, 9]: 0.45 µg/mL (≈ 1.4 µM)
IC50 [2, 9]: 0.73 µg/mL (≈ 2.26 µM)

COC(=O)C1=CO[C@@H](C)[C@@H]2CN3CCc4c([nH]c5ccccc45)C3C[C@H]12 (stereo partly shown) [Alstonine (tetrahydro-)]
IC50 [1, 9]: 2.76 µg/mL (≈ 7.83 µM)
IC50 [2, 9]: 2.86 µg/mL (≈ 8.11 µM)

CC[C@H]1[C@@H]2C[C@H]3[C@@H]4N(C)c5ccccc5[C@]45C[C@@H]([C@@H]2[C@H]5O)N3[C@@H]1O [Ajmaline, reference compound]
IC50 [1, 9]: 4.7 µg/mL (≈ 14.4 µM)
IC50 [2, 9]: 1.24 µg/mL (≈ 3.8 µM)

C[C@@H]1CC[C@H]2[C@@H](C)C(=O)O[C@@H]3O[C@@]4(C)CC[C@@H]1[C@]32OO4 [Artemisinin, reference compound]
IC50 [1, 9]: 0.004 µg/mL (≈ 0.0142 µM)
IC50 [2, 9]: 0.002 µg/mL (≈ 0.00708 µM)

N=C(N)c1ccc(N=NNc2ccc(C(=N)N)cc2)cc1 [Berenil]
Day of 0% Parasite Count [7]: 8 days
Day of 0% Parasite Count [8]: 6 days

CCN(CC)CCCC(C)Nc1ccnc2cc(Cl)ccc12 (stereo not shown) [Chloroquine, reference compound]
IC50 [1]: 0.006 µg/mL (≈ 0.0188 µM)
IC50 [2]: 0.04 µg/mL (≈ 0.125 µM)

sodium antimony gluconate [Pentostam]
concentration at which isolate is sensitive, as Sb [6]: 6 μg/ml Sb
concentration at which isolate is sensitive, as drug [6]: 20 μg/ml drug
